Data published in ChEMBL document CHEMBL3044944, “Synthesis and evaluation of meta substituted 1-(aryloxypropyl)-4-(chloroaryl) piperazines as potential atypical antipsychotics” (2013).
Activity calls are given as the source filed them. No cut-off for these calls is given here.

Key:
Mus musculus [1] = assay: Antipsychotic activity in Mus musculus albino lyka (mouse) assessed as reversal of apomorphine-induced stereotypy at 5 to 10 mg/kg, ip administered 10 min prior to apomorphine challenge measured after 10 to 30 min; type: functional, organism-based
Mus musculus [2] = assay: Antipsychotic activity in Mus musculus albino lyka (mouse) assessed as reversal of apomorphine-induced mesh climbing at 5 to 10 mg/kg, ip administered 10 min prior to apomorphine challenge measured after 10 to 30 min; type: functional, organism-based
Mus musculus [3] = assay: Antipsychotic activity in ip dosed Mus musculus albino lyka (mouse) assessed as reversal of apomorphine-induced mesh climbing administered 10 min prior to apomorphine challenge measured after 10 to 30 min; type: functional; details: for ED50: Mus musculus, albino lyka, ip

| SMILES | Activity (Mus musculus [1]) | Activity (Mus musculus [2]) | logED50 (Mus musculus [3]) | ED50 (Mus musculus [3]) [mg/kg] |
| --- | --- | --- | --- | --- |
| O=Cc1cccc(OCCCN2CCN(C(=O)c3ccc(Cl)cc3)CC2)c1 | Active | inactive |  |  |
| CC(=O)c1cccc(OCCCN2CCN(Cc3ccccc3Cl)CC2)c1 | inactive |  | 0.903 | 8 |
| O=Cc1cccc(OCCCN2CCN(Cc3ccc(Cl)cc3)CC2)c1 | Active |  | 1 | 10 |
| O=Cc1cccc(OCCCN2CCN(C(=O)c3ccccc3Cl)CC2)c1 | Active | inactive |  |  |
| CC(=O)c1cccc(OCCCN2CCN(C(=O)c3ccc(Cl)cc3)CC2)c1 | Active | inactive |  |  |
| CC(=O)c1cccc(OCCCN2CCN(C(=O)c3ccccc3Cl)CC2)c1 | Active | inactive |  |  |
| O=Cc1cccc(OCCCN2CCN(Cc3ccccc3Cl)CC2)c1 | inactive |  | 0.799 | 6.3 |
| CC(=O)c1cccc(OCCCN2CCN(Cc3ccc(Cl)cc3)CC2)c1 | inactive |  | 0.857 | 7.2 |
